Drawing on patent US10604509B2, “Nrf2 regulators” (GlaxoSmithKline Intellectual Property Development Limited, priority 2015, dated 2020), this text covers EC50 for 25 molecules.

This assay has as its system NQO1 specific enzyme activity in BEAS-2B cells. Put plainly: BEAS-2B NQO1 MTT assay. In kind it is cell-based. The note with it: BEAS-2B cells, 48 hours with compound, MTT readout, read-out: EC50 of NQO1 specific activity induction. The procedure, abridged: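 NQO1 specific activity, an NRF2 activation marker, read kinetically as absorbance change at 570 nm for 30 min after MTT cocktail addition to crude lysates of BEAS-2B cells exposed 48 h to compound. Three-parameter fit of Delta OD/min against log concentration gives EC50; lysate portion used for Cell Titer Glo.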

Counter-ions that a name gives are not always drawn. Like-named read-outs stand apart in the source and are kept apart here.

Regarding `CC[C@@H]1CN(Cc2cc([C@H](CC(=O)O)c3ccc4c(nnn4CC)c3F)ccc2C)Cc2cccc(F)c2O1` [Example 52, (S)-3-(1-Ethyl-4-fluoro-1H-benzo[d][1,2,3]triazol-5-yl)-3-(3-(((R)-2-ethyl-9-fluoro-2,3-dihdyrobenzo[f][1,4]oxazepin-4(5H)-yl)methyl)-4-methylphenyl)propanoic acid, 0.5formic acid salt], the EC50 (Homo sapiens, BEAS-2B, 48 h) was in the range of 1 to 10 nM.

On to `CCC1CCN(Cc2nccn2Cc2cc(C(CCc3cn(CC)nn3)C(C)(C)C(=O)O)ccc2Cl)CC1` (stereo not shown) [Example 230, 3-(4-Chloro-3-((2-((4-ethylpiperidin-1-yl)methyl)-1H-imidazol-1-yl)methyl)phenyl)-5-(1-ethyl-1H-1,2,3-triazol-4-yl)-2,2-dimethylpentanoic Acid], for which the EC50 (Homo sapiens, BEAS-2B, 48 h) lay within 1 to 10 nM.

With `Cc1ccc(C2(C)CN(Cc3cc(C(CC(=O)O)c4ccc5c(nnn5C)c4C)ccc3C)CCO2)cc1` (stereo not shown) [Example 18, 3-(1,4-Dimethyl-1H-benzo[d][1,2,3]triazol-5-yl)-3-(4-methyl-3-((2-methyl-2-(p-tolyl)morpholino)methyl)phenyl)propanoic Acid, Formic Acid Salt], for the setting “Homo sapiens, BEAS-2B, 48 h”, the EC50 was 1000 to 10000 nM.

For the molecule `CC[C@@H]1CN(Cc2cc(C(CC(=O)O)c3ccc4c(nnn4C)c3C)ccc2C)Cc2ccc(F)cc2O1` (stereo partly drawn) [Example 75, 3-(1,4-Dimethyl-1H-benzo[d][1,2,3]triazol-5-yl)-3-(3-(((R)-2-ethyl-8-fluoro-2,3-dihydrobenzo[f][1,4]oxazepin-4(5H)-yl)methyl)-4-methylphenyl)propanoic Acid, Formic Acid Salt], the 50% effective concentration (EC50) (Homo sapiens, BEAS-2B, 48 h) was in the range of 100 to 1000 nM.

In the case of `Cc1ccc(C(CC(=O)O)c2ccc3c(nnn3C)c2C)cc1CN1Cc2ccccc2OC(C)C1` (stereo not shown) [Example 3, trifluoroacetic Acid Salt], the EC50 (Homo sapiens, BEAS-2B, 48 h) lay within 1000 to 10000 nM.

Turning to `Cc1ccc(C(c2ccc3c(nnn3C)c2C)C(C)(C)C(=O)O)cc1Cn1ccnc1CC1CCCCCC1` (stereo not shown) [Example 131, 3-(3-((2-(Cycloheptylmethyl)-1H-imidazol-1-yl)methyl)-4-methylphenyl)-3-(1,4-dimethyl-1H-benzo[d][1,2,3]triazol-5-yl)-2,2-dimethylpropanoic acid], where the note is “Homo sapiens, BEAS-2B, 48 h”, the EC50 was in the range of 100 to 1000 nM.

With `Cc1ccc(C(CC(=O)O)c2ccc3c(nnn3C)c2C)cc1CN1CCOc2ccccc2C1` (stereo not shown) [Example 1, 3-(3-((2,3-Dihydrobenzo[f][1,4]oxazepin-4(5H)-yl)methyl)-4-methylphenyl)-3-(1,4-dimethyl-1H-benzo[d][1,2,3]triazol-5-yl)propanoic Acid, Trifluoroacetic Acid Salt], the EC50 (Homo sapiens, BEAS-2B, 48 h) was in the range of 1000 to 10000 nM.

With `Cc1cc2c(cn1)CN(Cc1cc(C(CC(=O)O)c3ccc4c(nnn4C)c3C)ccc1C)CC(C)(C)O2` (stereo not shown) [Example 108, 3-(1,4-dimethyl-1H-benzo[d][1,2,3]triazol-5-yl)-3-(4-methyl-3-((2,2,8-trimethyl-2,3-dihydropyrido[3,4-f][1,4]oxazepin-4(5H)-yl)methyl)phenyl)propanoic Acid, Formic Acid Salt], the EC50 (Homo sapiens, BEAS-2B, 48 h) lay in the range of 1000 to 10000 nM.

`CCC1CCN(Cc2nccn2Cc2cc(C(c3ccc4c(nnn4C)c3C)C(C)(C)C(=O)O)ccc2Cl)CC1` (stereo not shown) [Example 236, 3-(4-Chloro-3-((2-((4-ethylpiperidin-1-yl)methyl)-1H-imidazol-1-yl)methyl)phenyl)-3-(1,4-dimethyl-1H-benzo[d][1,2,3]triazol-5-yl)-2,2-dimethylpropanoic Acid]: the EC50 (Homo sapiens, BEAS-2B, 48 h) is < 1 nM.

Take `CC[C@@H]1CN(Cc2cc(C(CCc3cn(CC)nn3)C(C)C(=O)O)ccc2C)Cc2ccccc2O1` (single isomer, unassigned; isomer 2) [Example 119]: the EC50 was in the range of 10 to 100 nM.

In the case of `CCC1Cc2ccc(F)cc2CN(Cc2cc(C(CC(=O)O)c3ccc4c(nnn4C)c3C)ccc2C)C1` (stereo not shown) [compound 107, 3-(1,4-dimethyl-1H-benzo[d][1,2,3]triazol-5-yl)-3-(3-((4-ethyl-8-fluoro-4,5-dihydro-1H-benzo[c]azepin-2(3H)-yl)methyl)-4-methylphenyl)propanoic acid], where the note is “Homo sapiens, BEAS-2B, 48 h”, the EC50 lay in the range of 10 to 100 nM.

As to `Cc1ccc(C(c2ccc3c(nnn3C)c2C)C(C)(C)C(=O)O)cc1CN1CCCC(n2cccn2)C1` (stereo not shown) [Example 162, 3-(3-((3-(1H-Pyrazol-1-yl)piperidin-1-yl)methyl)-4-methylphenyl)-3-(1,4-dimethyl-1H-benzo[d][1,2,3]triazol-5-yl)-2,2-dimethylpropanoic Acid], the EC50 (Homo sapiens, BEAS-2B, 48 h) lay in the range of 100 to 1000 nM.

In the case of `Cc1ccc([C@H](CC(=O)O)c2ccc3c(nnn3C)c2C)cc1CN1Cc2cc(F)ccc2OC(C)(C)C1` [Example 62, (S)-3-(1,4-Dimethyl-1H-benzo[d][1,2,3]triazol-5-yl)-3-(3-((7-fluoro-2,2-dimethyl-2,3-dihydrobenzo[f][1,4]oxazepin-4(5H)-yl)methyl)-4-methylphenyl)propanoic acid, 1.5formic acid salt], under “Homo sapiens, BEAS-2B, 48 h”, the EC50 was in the range of 10 to 100 nM.

In the case of `CCN1CCN(Cc2cc(C(c3ccc4c(nnn4C)c3C)C(C)(C)C(=O)O)ccc2C)Cc2ccccc21` (stereo not shown) [Example 111, 3-(1,4-dimethyl-1H-benzo[d][1,2,3]triazol-5-yl)-3-(3-((1-ethyl-2,3-dihydro-1H-benzo[e][1,4]diazepin-4(5H)-yl)methyl)-4-methylphenyl)-2,2-dimethylpropanoic Acid, Formic Acid Salt], the EC50 (Homo sapiens, BEAS-2B, 48 h) was in the range of 10 to 100 nM.

Consider `CCC1CN(Cc2cc(C(CC(=O)O)c3ccc4c(nnn4C)c3C)ccc2C)Cc2ccc(OC)cc2O1` (stereo not shown) [Example 84, 3-(1,4-Dimethyl-1H-benzo[d][1,2,3]triazol-5-yl)-3-(3-((2-ethyl-8-methoxy-2,3-dihdyrobenzo[f][1,4]oxazepin-4(5H)-yl)methyl)-4-methylphenyl)propanoic acid, form acid salt], for which, where the note is “Homo sapiens, BEAS-2B, 48 h”, the EC50 lay in the range of 100 to 1000 nM.

Turning to `Cc1ccc(C(CC(=O)O)c2ccc3c(nnn3C)c2C)cc1Cn1ccnc1C(C)C1CCCCC1` (stereo not shown) [Example 133, Ammonium 3-(3-((2-(1-cyclohexylethyl)-1H-imidazol-1-yl)methyl)-4-methylphenyl)-3-(1,4-dimethyl-1H-benzo[d][1,2,3]triazol-5-yl)propanoate], the half-maximal effective concentration (EC50) (Homo sapiens, BEAS-2B, 48 h) is 100 to 1000 nM.

As to `Cc1ccc(C(CC(=O)O)c2ccc3c(nnn3C)c2C)cc1Cc1cnnn1CC1CCCCC1` (stereo not shown) [Example 128, 3-(3-((1-(Cyclohexylmethyl)-1H-1,2,3-triazol-5-yl)methyl)-4-methylphenyl)-3-(1,4-dimethyl-1H-benzo[d][1,2,3]triazol-5-yl)propanoic acid], the EC50 (Homo sapiens, BEAS-2B, 48 h) lay within 1000 to 10000 nM.

Turning to `CCC1CCN(Cc2nccn2Cc2cc([C@H](c3ccc4c(nnn4C)c3C)C(C)(C)C(=O)O)ccc2Cl)CC1` [Example 238, (R)-3-(4-Chloro-3-((2-((4-ethylpiperidin-1-yl)methyl)-1H-imidazol-1-yl)methyl)phenyl)-3-(1,4-dimethyl-1H-benzo[d][1,2,3]triazol-5-yl)-2,2-dimethylpropanoic Acid], the EC50 (Homo sapiens, BEAS-2B, 48 h) lay in the range of 1 to 10 nM.

For the molecule `CC[C@@H]1CN(Cc2cc([C@@H](c3ccc4c(nnn4CC)c3C)C(C)(C)C(=O)O)ccc2C)Cc2cnccc2O1` [Example 188, (S)-3-(3-(((R)-2-Ethyl-2,3-dihydropyrido[3,4-f][1,4]oxazepin-4(5H)-yl)methyl)-4-methylphenyl)-3-(1-ethyl-4-methyl-1H-benzo[d][1,2,3]triazol-5-yl)-2,2-dimethylpropanoic Acid], the concentration for a half-maximal effect (EC50) (Homo sapiens, BEAS-2B, 48 h) is < 1 nM.

For the molecule `CCn1nnc2c(F)c([C@H](c3ccc(C)c(CN4Cc5ccccc5OC(C)(C)C4)c3)[C@@H](C)C(=O)O)ccc21` [Example 193, (2R,3S)-3-(3-((2,2-Dimethyl-2,3-dihydro-benzo[f][1,4]oxazepin-4(5H)-yl)methyl)-4-methylphenyl)-3-(1-ethyl-4-fluoro-1H-benzo[d][1,2,3]triazol-5-yl)-2-methylpropanoic acid, Sodium salt], the EC50 (Homo sapiens, BEAS-2B, 48 h) was in the range of 1 to 10 nM.

Consider `Cc1ccc([C@@H](CC(=O)O)c2ccc3c(nnn3C)c2C)cc1CN1Cc2ccccc2OC(C)(C)C1` [Example 110, (R)-3-(1,4-dimethyl-1H-benzo[d][1,2,3]triazol-5-yl)-3-(3-((2,2-dimethyl-2,3-dihydrobenzo[f][1,4]oxazepin-4(5H)-yl)methyl)-4-methylphenyl)propanoic Acid, Formic Acid Salt], for which the EC50 (Homo sapiens, BEAS-2B, 48 h) is < 1 nM.

As for `Cc1ccc2c(c1)OC(C)(C)CN(Cc1cc([C@@H](CC(=O)O)c3ccc4c(nnn4C)c3C)ccc1C)C2` [Example 179, (R)-3-(1,4-Dimethyl-1H-benzo[d][1,2,3]triazol-5-yl)-3-(4-methyl-3-((2,2,8-trimethyl-2,3-dihydrobenzo[f][1,4]oxazepin-4(5H)-yl)methyl)phenyl) propanoic acid], where the note is “Homo sapiens, BEAS-2B, 48 h”, the concentration giving a half-maximal response (EC50) was 10 to 100 nM.

`CC[C@@H]1CN(Cc2cc([C@H](c3ccc4c(nnn4CC)c3C)C(C)(C)C(=O)O)ccc2C)Cc2cnccc2O1` [Example 189, (R)-3-(3-(((R)-2-ethyl-2,3-dihydropyrido[3,4-f][1,4]oxazepin-4(5H)-yl)methyl)-4-methylphenyl)-3-(1-ethyl-4-methyl-1H-benzo[d][1,2,3]triazol-5-yl)-2,2-dimethylpropanoic Acid]: for the setting “Homo sapiens, BEAS-2B, 48 h”, the concentration giving a half-maximal response (EC50) lay within 1 to 10 nM.

For the molecule `CC[C@@H]1CN(Cc2cc([C@@H](c3ccc4c(nnn4C)c3C)C(C)(C)C(=O)N3CCSC3=O)ccc2C)Cc2cnccc2O1` [Example 256, 3-((S)-3-(1,4-Dimethyl-1H-benzo[d][1,2,3]triazol-5-yl)-3-(3-(((R)-2-ethyl-2,3-dihydropyrido[3,4-f][1,4]oxazepin-4(5H)-yl)methyl)-4-methylphenyl)-2,2-dimethylpropanoyl)thiazolidin-2-one, Trifluoroacetic Acid Salt], the EC50 (Homo sapiens, BEAS-2B, 48 h) is 10 to 100 nM.

On to `Cc1ccc(C(CC(=O)O)c2ccc3c(nnn3C)c2C)cc1Cn1ccnc1CC1CCOCC1` (stereo not shown) [Example 129, 3-(1,4-Dimethyl-1H-Benzo[d][1,2,3]triazol-5-yl)-3-(4-methyl-3-((2-((tetrahydro-2H-pyran-4-yl)methyl)-1H-imidazol-1-yl)methyl)phenyl)propanoic Acid], for which, for the setting “Homo sapiens, BEAS-2B, 48 h”, the EC50 lay within 100 to 1000 nM.

Usually EC50 stands for the concentration at which the effect is half-maximal.
